Data on 2 compounds can be found in patent US9089565B2, “Compositions and methods for causing neurite outgrowth” (MEDICAL RESEARCH COUNCIL, priority 2009, dated 2015).

The target of this test is T1, NgR1 (Homo sapiens, UniProt Q9BZR6).
T1 construct: The cDNAs of NgR1 (NM 023004, Nt. 184-1543); expressed in transfected cells; host or cells: COS7
T1 sequence (Q9BZR6 27-447): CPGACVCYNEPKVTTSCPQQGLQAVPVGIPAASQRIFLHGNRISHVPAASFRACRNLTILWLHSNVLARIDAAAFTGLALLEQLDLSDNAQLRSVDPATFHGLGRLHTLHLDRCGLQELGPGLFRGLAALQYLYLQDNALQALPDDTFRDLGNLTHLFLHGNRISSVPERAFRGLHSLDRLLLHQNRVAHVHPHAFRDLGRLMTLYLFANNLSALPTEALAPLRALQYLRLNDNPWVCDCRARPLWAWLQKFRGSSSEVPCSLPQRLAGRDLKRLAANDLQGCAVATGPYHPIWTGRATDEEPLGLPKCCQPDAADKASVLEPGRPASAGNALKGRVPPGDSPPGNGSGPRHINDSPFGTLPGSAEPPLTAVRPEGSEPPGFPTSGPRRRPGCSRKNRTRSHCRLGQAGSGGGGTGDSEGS
Put plainly: Binding of Nogo-66 fragment (Nogo-GFP) to COS7 cells over-expressing NgR1. The following applies: wild type NgR1. The method, then:
FIG. 3. CK2 phosphorylates NgR1, and inhibits binding of the myelin-associated proteins to NgR1. (A) Myc-tagged wild type, 281S/A or 281S/D mutant NgR1 were over-expressed in COS7 cells. The over-expressed cells were incubated with either the combination of ATP and CK2, or NEP1-40 for 30 min at 37° C. After washing with PBS, cells were incubated with Hisx6-tagged Nogo-GFP for 3 hours at 4° C. The cells were fixed and immunofluorescence was performed with anti-Myc and anti-GFP antibodies. (B) COS7 cells over-expressing Myc-tagged wild type NgR1 were treated as described in (A). Proteins were extracted and the Myc-tagged NgR1 was immunoprecipitated with anti-Myc antibody. Co-precipitated Hisx6-tagged Nogo-GFP was detected by anti-GFP antibody. (C) Cell surface proteins in NgR1-overexpressing COS7 cells were labelled with biotin. The biotinylated proteins were fractionated and analysed by SDS-PAGE. Biotinylated NgR1-Myc was detected with anti-Myc. antibody. (D) COS7 cells over-expressing either wild type NgR1-Myc or 281S/A mutant NgR1-Myc were incubated with ã-^32P-ATP in the presence or absence of CK2. Myc-tagged proteins were immunoprecipitated and analysed with SDS-PAGE. Proteins were blotted onto a PVDF membrane and the membrane was exposed to X-ray film to detect incorporated ^32P. After autoradiography, the membrane was used for immunoblotting with anti-Myc antibody. (E and F) COS7 cells over-expressing Myc-tagged wild type, 281S/A or 281S/D mutant NgR1, were treated as described in (A). After washing with PBS, cells were incubated with either His-tagged OMgp (E) or HA-tagged MAG (F) for 3 hours at 4° C. […]
After treatment with or without CK2, COS7 cells over-expressing wild type or mutant NgR were incubated with Hisx6 tagged Nogo-GFP (10 μg/ml), HA-MAG (50 μg/ml) or Hisx6 tagged OMgp (10 μg/ml) in PBS for 3 hours at 4° C. […] Biotinylated proteins were precipitated with streptavidin beads and were analysed by SDS-PAGE. Each sample fractionated from 5×10^6 cells was analysed by SDS-PAGE. […]

As for `Nc1ncnc2c1ncn2[C@@H]1O[C@H](COP(=O)(O)OP(=O)(O)OP(=O)(O)O)[C@@H](O)[C@H]1O` [ATP], the “interaction of Nogo-66 fragment with over-expressed NgR1, immunoprecipitation” value (ATP or CK2 alone) is “failed to inhibit the interaction”.
Turning to “NEP1-40: a competitive inhibitor of Nogo-66 binding to NgR1 (MEDLDQSPLVSSSDSPPRPQPAFKYQFVREPEDEEEEEEE; Nogo-66 residues 1-40; UniProt Q9NQC3 1-40, looked up, fragment) [reference compound]”, the “binding of the Nogo-66 fragment, immunofluorescence” value (pre-treatment 30 min (CK2 with ATP, or NEP1-40)) was “inhibited binding”.
